# In publication PMC9785230, “Glutamine Synthetase Contributes to the Regulation of Growth, Conidiation, Sclerotia Development, and Resistance to Oxidative Stress in the Fungus Aspergillus flavus” (Toxins, 2022):
# Biological target: T1, glutamine synthetase AflGsA (recombinant rAflGsA) (Aspergillus flavus, UniProt A0A7U2MSK3)
# T1 construct: gene F9C07_2280198; 6× His-rAflGsA, AflgsA cDNA cloned into pET-28a, expressed in E. coli BL21 (DE3)
# T1 sequence (A0A7U2MSK3 1-357): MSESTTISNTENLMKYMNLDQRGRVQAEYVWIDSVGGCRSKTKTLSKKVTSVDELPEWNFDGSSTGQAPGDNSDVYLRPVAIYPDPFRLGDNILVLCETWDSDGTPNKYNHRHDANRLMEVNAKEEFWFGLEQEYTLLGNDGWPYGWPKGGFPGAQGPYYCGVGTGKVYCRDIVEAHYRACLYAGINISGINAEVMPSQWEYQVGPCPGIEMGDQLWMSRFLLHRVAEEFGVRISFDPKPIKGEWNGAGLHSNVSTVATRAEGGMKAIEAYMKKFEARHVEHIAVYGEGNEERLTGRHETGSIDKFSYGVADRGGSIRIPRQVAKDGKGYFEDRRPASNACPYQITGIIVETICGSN
# Assay: glutamine synthetase activity assay at […] nm with purified recombinant enzyme, IC50 curve
# Assay type: biochemical
smiles,measurement,value
N[C@@H](CCCC(=O)O)C(=O)O [L-α-aminoadipic acid],IC50,288 µM
